Reference: US6737383B1, “Herbicidal oxadiazolidines” (priority 1999, dated 2004)

Assays:
[1] = system: crabgrass; test: Test B pre/postemergence crabgrass; assay type: in vivo, Digitaria sanguinalis
How it was run: (§1)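 Response is a visual 0-to-10 score relative to untreated plants, where 0 means no effect and 10 means complete control, taken twelve to sixteen days after application. Treatments went onto soil at planting and onto foliage of 1- to 4-leaf plants, using a surfactant-containing non-phytotoxic solvent.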

[2] = system: giant foxtail; test: Test B pre/postemergence giant foxtail; assay type: in vivo, Setaria faberii
How it was run: as §1

[3] = system: wheat; test: Test B pre/postemergence wheat; assay type: in vivo, Triticum aestivum
How it was run: as §1

[4] = system: duck salad; test: Test B flood test duck salad; assay type: in vivo, Heteranthera limosa; conditions: for Plant response rating, Ducksalad (0 to 10 scale, 0 is no effect, 10 is complete control) / Ducksalad plant response rating (0 to 10 scale, 0 is no effect, 10 is complete control): visual evaluation after twelve to sixteen days; for Ducksalad plant response rating (0 to 10 scale, 0 is no effect, 10 is complete control): under heading Pre-emergence
How it was run: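 Each value is a visual injury score relative to controls, with 10 meaning complete control and 0 no effect. Evaluation took place twelve to sixteen days after the 2-leaf-stage plants were treated and kept in the greenhouse.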

[5] = Postemergence, Rate 125 g/ha, scale 0 to 10, 0 is no effect, 10 is complete control
[6] = Postemergence, Rate 250 g/ha, scale 0 to 10, 0 is no effect, 10 is complete control
[7] = Postemergence, Rate 500 g/ha, scale of 0 to 10 where 0 is no effect and 10 is complete control
[8] = Preemergence, Rate 62 g/ha, scale 0 to 10 (0 no effect, 10 complete control)
[9] = Preemergence, Rate 125 g/ha, scale of 0 to 10 where 0 is no effect and 10 is complete control
[10] = Preemergence, Rate 250 g/ha, scale of 0 to 10 where 0 is no effect and 10 is complete control
[11] = Preemergence, Rate 500 g/ha, scale of 0 to 10 where 0 is no effect and 10 is complete control
[12] = Rate 62 g/ha, Postemergence, scale of 0 to 10 where 0 is no effect and 10 is complete control
[13] = Rate 62 g/ha, flood test species, Pre-emergence
[14] = Rate 125 g/ha, flood test species
[15] = Rate 250 g/ha, Pre-emergence, flood-test species, scale 0 to 10, 0 is no effect, 10 is complete control
[16] = Rate 500 g/ha, Pre-emergence, flood test species, scale 0 to 10 (0 no effect, 10 complete control)
[17] = Preemergence, Rate 250 g/ha, scale 0 to 10, 0 is no effect, 10 is complete control
[18] = Preemergence, Rate 500 g/ha, scale 0 to 10, 0 is no effect, 10 is complete control
[19] = Postemergence (flood test), Rate 125 g/ha, scale 0 to 10, 0 is no effect, 10 is complete control
[20] = Postemergence section (flood test species), Rate 500 g/ha, scale of 0 to 10 where 0 is no effect and 10 is complete control
[21] = Rate 62 g/ha, Postemergence (flood test species), scale of 0 to 10 where 0 is no effect and 10 is complete control
[22] = flood test species, listed under Postemergence, Rate 250 g/ha, scale 0 to 10, 0 is no effect, 10 is complete control

SMILES: CC(C)N(C(=O)n1oc(=O)[nH]c1=O)c1ccc(F)cc1F [Compound 391]
- Plant response rating, Crabgrass [1, 5]: 0
- Plant response rating, Crabgrass [1, 6]: 0
- Crabgrass plant response rating [1, 7]: 0
- Plant response rating, Crabgrass [1, 8]: 0
- Plant response rating, Crabgrass [1, 9]: 0
- Crabgrass plant response rating [1, 10]: 0
- Crabgrass plant response rating [1, 11]: 0
- Crabgrass plant response rating [1, 12]: 0
- Plant response rating, Giant foxtail [2, 5]: 0
- Plant response rating, Giant foxtail [2, 6]: 0
- Giant foxtail plant response rating [2, 7]: 0
- Plant response rating, Giant foxtail [2, 8]: 0
- Plant response rating, Giant foxtail [2, 9]: 0
- Giant foxtail plant response rating [2, 10]: 0
- Giant foxtail plant response rating [2, 11]: 0
- Giant foxtail plant response rating [2, 12]: 0
- Plant response rating, Wheat [3, 6]: 0
- Wheat plant response rating [3, 7]: 0
- Plant response rating, Wheat [3, 8]: 0
- Plant response rating, Wheat [3, 9]: 0
- Wheat plant response rating [3, 10]: 0
- Wheat plant response rating [3, 11]: 0
- Wheat plant response rating [3, 12]: 0
- Plant response rating, Ducksalad (0 to 10 scale, 0 is no effect, 10 is complete control) [4, 13]: 0
- Ducksalad plant response rating (0 to 10 scale, 0 is no effect, 10 is complete control) [4, 14]: 0
- Ducksalad plant response rating [4, 15]: 0
- Ducksalad plant response rating [4, 16]: 0

SMILES: CC(C)N(C(=O)n1oc(=O)n(C(C)Cl)c1=O)c1ccc(F)cc1 (centres unmarked) [Compound 393]
- Plant response rating, Crabgrass [1, 5]: 1
- Plant response rating, Crabgrass [1, 6]: 5
- Crabgrass plant response rating [1, 7]: 8
- Plant response rating, Crabgrass [1, 8]: 0
- Plant response rating, Crabgrass [1, 9]: 2
- Crabgrass plant response rating [1, 10]: 3
- Crabgrass plant response rating [1, 11]: 8
- Crabgrass plant response rating [1, 12]: 0
- Plant response rating, Giant foxtail [2, 5]: 8
- Plant response rating, Giant foxtail [2, 6]: 9
- Giant foxtail plant response rating [2, 7]: 9
- Plant response rating, Giant foxtail [2, 8]: 1
- Plant response rating, Giant foxtail [2, 9]: 9
- Giant foxtail plant response rating [2, 10]: 10
- Giant foxtail plant response rating [2, 11]: 10
- Giant foxtail plant response rating [2, 12]: 5
- Wheat plant response rating [3, 7]: 0
- Plant response rating, Wheat [3, 8]: 0
- Plant response rating, Wheat [3, 9]: 0
- Wheat plant response rating [3, 10]: 0
- Wheat plant response rating [3, 11]: 0
- Wheat plant response rating [3, 12]: 0
- Plant response rating, Ducksalad (0 to 10 scale, 0 is no effect, 10 is complete control) [4, 13]: 0
- Ducksalad plant response rating (0 to 10 scale, 0 is no effect, 10 is complete control) [4, 14]: 0
- Ducksalad plant response rating [4, 15]: 0
- Ducksalad plant response rating [4, 16]: 0

SMILES: CC(C)N(C(=O)n1oc(=O)n(CCCC(F)(F)F)c1=O)c1ccc(F)cc1 [Compound 398]
- Plant response rating, Crabgrass [1, 5]: 3
- Plant response rating, Crabgrass [1, 6]: 9
- Crabgrass plant response rating [1, 7]: 9
- Plant response rating, Crabgrass [1, 8]: 9
- Plant response rating, Crabgrass [1, 9]: 10
- Crabgrass plant response rating [1, 17]: 10
- Crabgrass plant response rating [1, 18]: 10
- Crabgrass plant response rating [1, 12]: 2
- Plant response rating, Giant foxtail [2, 5]: 8
- Plant response rating, Giant foxtail [2, 6]: 9
- Giant foxtail plant response rating [2, 7]: 9
- Plant response rating, Giant foxtail [2, 8]: 10
- Plant response rating, Giant foxtail [2, 9]: 10
- Giant foxtail plant response rating [2, 17]: 10
- Giant foxtail plant response rating [2, 18]: 10
- Giant foxtail plant response rating [2, 12]: 3
- Wheat plant response rating [3, 7]: 3
- Plant response rating, Wheat [3, 8]: 0
- Plant response rating, Wheat [3, 9]: 0
- Wheat plant response rating [3, 17]: 0
- Wheat plant response rating [3, 18]: 2
- Wheat plant response rating [3, 12]: 0
- Plant response rating, Ducksalad [4, 19]: 0
- Ducksalad plant response rating [4, 20]: 0
- Ducksalad plant response rating [4, 21]: 0
- Plant response rating, Ducksalad [4, 22]: 0

SMILES: C=CC[Si](C)(C)Cn1c(=O)on(C(=O)N(c2ccc(Cl)cc2)C(C)C)c1=O [Compound 414]
- Plant response rating, Crabgrass [1, 5]: 3
- Plant response rating, Crabgrass [1, 6]: 6
- Crabgrass plant response rating [1, 7]: 9
- Plant response rating, Crabgrass [1, 8]: 2
- Plant response rating, Crabgrass [1, 9]: 7
- Crabgrass plant response rating [1, 17]: 9
- Crabgrass plant response rating [1, 18]: 10
- Crabgrass plant response rating [1, 12]: 1
- Plant response rating, Giant foxtail [2, 6]: 6
- Giant foxtail plant response rating [2, 7]: 9
- Plant response rating, Giant foxtail [2, 8]: 2
- Plant response rating, Giant foxtail [2, 9]: 9
- Giant foxtail plant response rating [2, 17]: 10
- Giant foxtail plant response rating [2, 18]: 10
- Giant foxtail plant response rating [2, 12]: 3
- Wheat plant response rating [3, 7]: 0
- Plant response rating, Wheat [3, 8]: 0
- Plant response rating, Wheat [3, 9]: 0
- Wheat plant response rating [3, 17]: 0
- Wheat plant response rating [3, 18]: 0
- Plant response rating, Ducksalad (0 to 10 scale, 0 is no effect, 10 is complete control) [4, 13]: 0
- Ducksalad plant response rating (0 to 10 scale, 0 is no effect, 10 is complete control) [4, 14]: 0
- Ducksalad plant response rating ([4]; Rate 250 g/ha, Pre-emergence (flood test species), scale 0 to 10, 0 is no effect, 10 is complete control): 0
- Ducksalad plant response rating [4, 16]: 0

SMILES: CSCCn1c(=O)on(C(=O)N(c2ccccc2)C(C)C)c1=O [Compound 419]
- Plant response rating, Crabgrass [1, 5]: 0
- Plant response rating, Crabgrass [1, 6]: 0
- Crabgrass plant response rating [1, 7]: 1
- Plant response rating, Crabgrass [1, 8]: 0
- Plant response rating, Crabgrass [1, 9]: 1
- Crabgrass plant response rating [1, 17]: 4
- Crabgrass plant response rating [1, 18]: 9
- Crabgrass plant response rating [1, 12]: 0
- Plant response rating, Giant foxtail [2, 5]: 0
- Plant response rating, Giant foxtail [2, 6]: 1
- Giant foxtail plant response rating [2, 7]: 6
- Plant response rating, Giant foxtail [2, 8]: 0
- Plant response rating, Giant foxtail [2, 9]: 1
- Giant foxtail plant response rating [2, 17]: 2
- Giant foxtail plant response rating [2, 18]: 5
- Giant foxtail plant response rating [2, 12]: 0
- Wheat plant response rating [3, 7]: 0
- Plant response rating, Wheat [3, 8]: 0
- Plant response rating, Wheat [3, 9]: 0
- Wheat plant response rating [3, 17]: 0
- Wheat plant response rating [3, 18]: 0
- Plant response rating, Ducksalad [4, 19]: 0
- Ducksalad plant response rating [4, 20]: 0
- Ducksalad plant response rating [4, 21]: 0
- Plant response rating, Ducksalad [4, 22]: 0
